Measurements from the NIST ThermoML archive (doi:10.1016/j.jct.2013.12.025).
Numbers after ± are expanded uncertainties.

Test: refractive index (Na D-line) (dimensionless); xn = mol fraction of the nth substance listed
Details: 101 kPa, Liquid, Standard Abbe refractometry

C=C[Si](C)(C)O[Si](C)(C)C=C [1,3-diethenyl-1,1,3,3-tetramethyldisiloxane] + CCc1ccccc1
refractive index (283.15 K, x1 = 0.0501): 1.49399 ± 0.00032 | refractive index (283.15 K, x1 = 0.1001): 1.48737 ± 0.00032 | refractive index (283.15 K, x1 = 0.1499): 1.48124 ± 0.00032 | refractive index (283.15 K, x1 = 0.2001): 1.47548 ± 0.00032 | refractive index (283.15 K, x1 = 0.25): 1.47011 ± 0.00032 | refractive index (283.15 K, x1 = 0.3): 1.46506 ± 0.00032 | refractive index (283.15 K, x1 = 0.3499): 1.46032 ± 0.00032 | refractive index (283.15 K, x1 = 0.4): 1.45589 ± 0.00032 | refractive index (283.15 K, x1 = 0.4501): 1.45171 ± 0.00032 | refractive index (283.15 K, x1 = 0.5): 1.44774 ± 0.00032 | refractive index (283.15 K, x1 = 0.5503): 1.44396 ± 0.00032 | refractive index (283.15 K, x1 = 0.6): 1.44044 ± 0.00032 | refractive index (283.15 K, x1 = 0.6501): 1.43706 ± 0.00032 | refractive index (283.15 K, x1 = 0.6999): 1.43392 ± 0.00032 | refractive index (283.15 K, x1 = 0.7502): 1.43084 ± 0.00032 | refractive index (283.15 K, x1 = 0.8001): 1.42794 ± 0.00032 | refractive index (283.15 K, x1 = 0.85): 1.42518 ± 0.00032 | refractive index (283.15 K, x1 = 0.8999): 1.42257 ± 0.00032 | refractive index (283.15 K, x1 = 0.9498): 1.42013 ± 0.00032 | refractive index (283.15 K, x1 = 1): 1.41762 ± 0.00032 | refractive index (288.15 K, x1 = 0.0501): 1.49133 ± 0.00032 | refractive index (288.15 K, x1 = 0.1001): 1.48473 ± 0.00032 | refractive index (288.15 K, x1 = 0.1499): 1.47856 ± 0.00032 | refractive index (288.15 K, x1 = 0.2001): 1.47282 ± 0.00032 | refractive index (288.15 K, x1 = 0.25): 1.46746 ± 0.00032 | refractive index (288.15 K, x1 = 0.3): 1.46243 ± 0.00032 | refractive index (288.15 K, x1 = 0.3499): 1.45769 ± 0.00032 | refractive index (288.15 K, x1 = 0.4): 1.45324 ± 0.00032 | refractive index (288.15 K, x1 = 0.4501): 1.44905 ± 0.00032 | refractive index (288.15 K, x1 = 0.5): 1.44509 ± 0.00032 | refractive index (288.15 K, x1 = 0.5503): 1.44135 ± 0.00032 | refractive index (288.15 K, x1 = 0.6): 1.43779 ± 0.00032 | refractive index (288.15 K, x1 = 0.6501): 1.43444 ± 0.00032 | refractive index (288.15 K, x1 = 0.6999): 1.43128 ± 0.00032 | refractive index (288.15 K, x1 = 0.7502): 1.4282 ± 0.00032 | refractive index (288.15 K, x1 = 0.8001): 1.42531 ± 0.00032 | refractive index (288.15 K, x1 = 0.85): 1.42258 ± 0.00032 | refractive index (288.15 K, x1 = 0.8999): 1.41995 ± 0.00032 | refractive index (288.15 K, x1 = 0.9498): 1.41752 ± 0.00032 | refractive index (288.15 K, x1 = 1): 1.41498 ± 0.00032 | refractive index (293.15 K, x1 = 0.0501): 1.48864 ± 0.00032 | refractive index (293.15 K, x1 = 0.1001): 1.48204 ± 0.00032 | refractive index (293.15 K, x1 = 0.1499): 1.47587 ± 0.00032 | refractive index (293.15 K, x1 = 0.2001): 1.47013 ± 0.00032 | refractive index (293.15 K, x1 = 0.25): 1.46476 ± 0.00032 | refractive index (293.15 K, x1 = 0.3): 1.45974 ± 0.00032 | refractive index (293.15 K, x1 = 0.3499): 1.45502 ± 0.00032 | refractive index (293.15 K, x1 = 0.4): 1.45057 ± 0.00032 | refractive index (293.15 K, x1 = 0.4501): 1.44639 ± 0.00032 | refractive index (293.15 K, x1 = 0.5): 1.44243 ± 0.00032 | refractive index (293.15 K, x1 = 0.5503): 1.43866 ± 0.00032 | refractive index (293.15 K, x1 = 0.6): 1.43514 ± 0.00032 | refractive index (293.15 K, x1 = 0.6501): 1.43177 ± 0.00032 | refractive index (293.15 K, x1 = 0.6999): 1.4286 ± 0.00032 | refractive index (293.15 K, x1 = 0.7502): 1.42555 ± 0.00032 | refractive index (293.15 K, x1 = 0.8001): 1.42264 ± 0.00032 | refractive index (293.15 K, x1 = 0.85): 1.41991 ± 0.00032 | refractive index (293.15 K, x1 = 0.8999): 1.41729 ± 0.00032 | refractive index (293.15 K, x1 = 0.9498): 1.41486 ± 0.00032 | refractive index (293.15 K, x1 = 1): 1.41232 ± 0.00032 | refractive index (298.15 K, x1 = 0.0501): 1.48591 ± 0.00032 | refractive index (298.15 K, x1 = 0.1001): 1.47931 ± 0.00032 | refractive index (298.15 K, x1 = 0.1499): 1.47319 ± 0.00032 | refractive index (298.15 K, x1 = 0.2001): 1.46745 ± 0.00032 | refractive index (298.15 K, x1 = 0.25): 1.46206 ± 0.00032 | refractive index (298.15 K, x1 = 0.3): 1.45705 ± 0.00032 | refractive index (298.15 K, x1 = 0.3499): 1.45233 ± 0.00032 | refractive index (298.15 K, x1 = 0.4): 1.44786 ± 0.00032 | refractive index (298.15 K, x1 = 0.4501): 1.44368 ± 0.00032 | refractive index (298.15 K, x1 = 0.5): 1.43975 ± 0.00032 | refractive index (298.15 K, x1 = 0.5503): 1.43599 ± 0.00032 | refractive index (298.15 K, x1 = 0.6): 1.43246 ± 0.00032 | refractive index (298.15 K, x1 = 0.6501): 1.42909 ± 0.00032 | refractive index (298.15 K, x1 = 0.6999): 1.42594 ± 0.00032 | refractive index (298.15 K, x1 = 0.7502): 1.42288 ± 0.00032 | refractive index (298.15 K, x1 = 0.8001): 1.41999 ± 0.00032 | refractive index (298.15 K, x1 = 0.85): 1.41723 ± 0.00032 | refractive index (298.15 K, x1 = 0.8999): 1.41464 ± 0.00032 | refractive index (298.15 K, x1 = 0.9498): 1.41219 ± 0.00032 | refractive index (298.15 K, x1 = 1): 1.40969 ± 0.00032 | refractive index (303.15 K, x1 = 0.0501): 1.48318 ± 0.00032 | refractive index (303.15 K, x1 = 0.1001): 1.4766 ± 0.00032 | refractive index (303.15 K, x1 = 0.1499): 1.47044 ± 0.00032 | refractive index (303.15 K, x1 = 0.2001): 1.46472 ± 0.00032 | refractive index (303.15 K, x1 = 0.25): 1.45934 ± 0.00032 | refractive index (303.15 K, x1 = 0.3): 1.45432 ± 0.00032 | refractive index (303.15 K, x1 = 0.3499): 1.4496 ± 0.00032 | refractive index (303.15 K, x1 = 0.4): 1.44516 ± 0.00032 | refractive index (303.15 K, x1 = 0.4501): 1.44097 ± 0.00032 | refractive index (303.15 K, x1 = 0.5): 1.43705 ± 0.00032 | refractive index (303.15 K, x1 = 0.5503): 1.43331 ± 0.00032 | refractive index (303.15 K, x1 = 0.6): 1.42979 ± 0.00032 | refractive index (303.15 K, x1 = 0.6501): 1.42643 ± 0.00032 | refractive index (303.15 K, x1 = 0.6999): 1.42325 ± 0.00032 | refractive index (303.15 K, x1 = 0.7502): 1.42022 ± 0.00032 | refractive index (303.15 K, x1 = 0.8001): 1.41732 ± 0.00032 | refractive index (303.15 K, x1 = 0.85): 1.41458 ± 0.00032 | refractive index (303.15 K, x1 = 0.8999): 1.41198 ± 0.00032 | refractive index (303.15 K, x1 = 0.9498): 1.40954 ± 0.00032 | refractive index (303.15 K, x1 = 1): 1.40704 ± 0.00032
